For assay [1], the target named is T1, Oxysterols receptor LXR-alpha (Homo sapiens, UniProt Q13133).
T1 sequence (Q13133 whole entry): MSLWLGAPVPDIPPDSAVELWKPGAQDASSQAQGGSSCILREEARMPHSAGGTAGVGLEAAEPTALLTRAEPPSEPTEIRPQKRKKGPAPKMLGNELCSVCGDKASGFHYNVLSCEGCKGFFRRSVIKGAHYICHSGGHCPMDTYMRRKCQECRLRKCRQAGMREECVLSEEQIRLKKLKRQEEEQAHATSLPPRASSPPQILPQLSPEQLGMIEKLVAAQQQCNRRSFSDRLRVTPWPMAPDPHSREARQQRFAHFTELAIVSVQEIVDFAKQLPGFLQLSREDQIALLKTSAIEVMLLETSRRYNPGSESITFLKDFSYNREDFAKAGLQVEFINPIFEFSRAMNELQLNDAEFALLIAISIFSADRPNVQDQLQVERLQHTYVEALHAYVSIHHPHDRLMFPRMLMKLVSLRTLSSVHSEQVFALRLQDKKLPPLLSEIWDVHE
The assay can be described thus: Displacement of [3H2]F3-methylAA from human LXRalpha expressed in Escherichia coli BL21 cells by scintillation proximity assay. For orientation: Scintillation proximity formats need no separation of bound from free tracer.

The target in assay [2] is T2, Oxysterols receptor LXR-beta (Homo sapiens, UniProt P55055).
T2 sequence (P55055 whole entry): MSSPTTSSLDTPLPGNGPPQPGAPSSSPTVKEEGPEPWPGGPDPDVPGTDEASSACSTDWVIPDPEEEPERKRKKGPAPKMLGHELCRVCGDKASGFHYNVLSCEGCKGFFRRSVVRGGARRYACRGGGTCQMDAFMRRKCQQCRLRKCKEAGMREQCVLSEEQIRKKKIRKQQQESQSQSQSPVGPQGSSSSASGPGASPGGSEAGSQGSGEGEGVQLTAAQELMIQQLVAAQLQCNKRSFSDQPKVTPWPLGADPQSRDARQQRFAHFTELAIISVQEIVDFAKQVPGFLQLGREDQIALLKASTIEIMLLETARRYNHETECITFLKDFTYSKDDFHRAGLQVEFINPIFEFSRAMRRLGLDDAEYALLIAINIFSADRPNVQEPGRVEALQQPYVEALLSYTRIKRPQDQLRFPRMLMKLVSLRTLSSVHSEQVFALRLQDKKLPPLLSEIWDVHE
The assay can be described thus: Displacement of [3H2]F3-methylAA from human LXRbeta expressed in Escherichia coli BL21 cells by scintillation proximity assay.

Assay [3] concerns the target Liver X receptor (LXR alpha AND LXR beta) (Homo sapiens) (UniProt Q13133+P55055). As to the kind of experiment: Selectivity ratio of IC50 for human LXRbeta to IC50 for human LXRalpha. The format is protein assay.

With `CC(C)=CCC/C(C)=C/C[C@H]1C[C@]2(CC=C(C)C)C(=O)[C@@](CC=C(C)C)(C(=O)C(C(=O)c3ccc(O)c(O)c3)=C2O)[C@]1(C)CCC=C(C)C` [GUTTIFERONE I], the IC50 (commonly the midpoint of a concentration-inhibition curve) was 3.4 µM in assay [1] and greater than 15 µM in assay [2]. Further, the Ratio IC50 in assay [3] amounted to 5.
